From patent US20140228286A1, “SPECIFIC PDE4B-INHIBITORS FOR THE TREATMENT OF DIABETES MELLITUS” (BOEHRINGER INGELHEIM INTERNATIONAL GMBH, priority 2013, published 2014)
pIC50: −log10 of the molar value.

Target: T1, PDE4B (Homo sapiens, UniProt Q07343)
T1 construct: active site fragment comprising the amino acids 152-484
Assay: PDE4B Scintillation Proximity (SPA) Assay
Type: biochemical
Conditions: PDE4B active site fragment amino acids 152-484; [3H]cAMP; 30° C., one hour; read-out: Experimentally determined IC50-value for PDE4B inhibition
Text: The IC50-values of the compounds of the invention (Examples 1.1 to 1.47) with respect to their PDE4B-inhibiting ability have been determined with a Scintillation Proximity (SPA) Assay (GE Healthcare, No. TRKQ7090). The Scintillation Proximity (SPA) Assay is based on the detection of the different affinities of the cyclic 3′-5′adenosine monophosphate (cAMP, low affinity) and the linear 5′-adenosine monophosphate (AMP, high affinity) to yttrium-silicate-scintillator beads. The cAMP-specific phosphodiesterase (PDE) PDE4B cleaves the 3′-phosphodiester bond of the tritium-labelled-[^3H]cAMP to the [^3H]5′-AMP. This [^3H]5′-AMP associates with the scintillator beads because of their higher affinity and causes scintillations (light flashes) which can be measured in a Wallac Microbeta Scintillation Counter.
10 μl of a [^3H]cAMP-solution (0.05 μCi in H2O, 10-30 Ci/mmol) are added to 89 μl of a PDE4B-enzyme-solution (active site fragment comprising the amino acids 152-484; 0.15-0.18 ng) in assay buffer (50 mM Tris HCl pH 7.5; 8.3 mM MgCl2; 1,7 mM ethylene glyclol tetraacetic acid (EGTA); 0.25 mg/ml bovine serum albumin (BSA)) and this mixture is incubated at 30° C. for one hour
a) without the compound to be tested (in the presence of 1 μl dimethylsulfoxide (DMSO), corresponding to 1% DMSO) and b) in the presence of the compound to be tested in a concentration of 125 μM, 25 μM, 5 μM, 1 μM, 200 nM, 40 nM, 8 nM, 1.6 nM, 0.32 nM, 0.064 nM, 0.0128 nM (dilution series in 5er-steps beginning from 125 μM until 0.0128 nM, in the presence of 1% DMSO).
After this incubation the reaction is stopped by the addition of 50 μl of bead-solution (500 mg beads/35 ml H2O, 18 mM zinc sulfate). In the following 45 minutes the beads have the opportunity to form a sediment. After that the scintillations are measured in the scintillation counter. If the tested compound is able to inhibit the enzymatic activity of the PDE4B-enzyme, less [^3H]AMP depending on the concentration of the tested compound is produced and less scintillations are measurable. […] The IC50-value stands for the compound concentration at which the PDE4B enzyme activity is inhibited to a half maximal value. Therefore the lower the IC50-value is the better is the PDE4B inhibition.

T1 sequence (Q07343 324-656): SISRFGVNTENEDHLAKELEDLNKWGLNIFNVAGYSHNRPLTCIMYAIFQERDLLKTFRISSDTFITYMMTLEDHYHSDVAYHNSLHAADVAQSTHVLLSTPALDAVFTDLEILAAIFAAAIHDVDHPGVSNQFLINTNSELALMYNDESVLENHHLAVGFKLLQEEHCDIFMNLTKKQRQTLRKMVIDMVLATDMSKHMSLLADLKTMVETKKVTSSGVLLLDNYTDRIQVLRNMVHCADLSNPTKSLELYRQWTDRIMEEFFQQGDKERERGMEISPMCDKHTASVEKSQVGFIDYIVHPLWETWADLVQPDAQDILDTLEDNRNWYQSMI

Row | Compound | pIC50
1 | [O-][S+]1CCc2nc(N3CCC(c4ccncc4)CC3)nc(Nc3cccc(F)c3)c21 (stereo not shown) [Example 1.12, (3-fluorophenyl)-[5-oxo-2-(3,4,5,6-tetrahydro-2H-[4,4′]bipyridinyl-1-yl)-6,7-dihydro-5H-5λ^4-thieno[3,2-d]pyrimidin-4-yl]-amine] | < 5.00
2 | [O-][S+]1CCc2nc(N3CCC(Oc4ccc(C5=NCCO5)cc4)CC3)nc(NC3CCOCC3)c21 (stereo not shown) [Example 1.23, (2-{4-[4-(4,5-dihydrooxazol-2-yl)-phenoxy]-piperidin-1-yl}-5-oxo-6,7-dihydro-5H-5λ^4-thieno[3,2-d]pyrimidin-4-yl)-(tetrahydropyran-4-yl)-amine] | 8.77
3 | CN1C(=O)Nc2ccccc2C12CCN(c1nc3c(c(NC4(CO)CC4)n1)[S+]([O-])CC3)CC2 (stereo not shown) [Example 1.7, 1-(4-(1-hydroxymethylcyclopropylamino)-5-oxo-6,7-dihydro-5H-5λ^4-thieno[3,2-d]pyrimidin-2-yl)-3′-methyl-1′H-spiro[piperidin-4,4′-quinazolin]-2′(3′H)-one] | < 5.00
4 | N#Cc1ccc(OC2CCN(c3nc4c(c(NC5(CO)CC5)n3)[S+]([O-])CC4)CC2)cc1 (stereo not shown) [Example 1.43, 4-{1-[4-(1-hydroxymethylcyclopropylamino)-5-oxo-6,7-dihydro-5H-5λ^4-thieno[3,2-d]pyrimidin-2-yl]-piperidin-4-yloxy}-benzonitrile] | 8.46
5 | COC1(c2ccc(Cl)cc2)CCN(c2nc3c(c(NC4CCOCC4)n2)[S+]([O-])CC3)CC1 (stereo not shown) [Example 1.42, {2-[4-(4-chlorophenyl)-4-methoxypiperidin-1-yl]-5-oxo-6,7-dihydro-5H-5λ^4-thieno[3,2-d]pyrimidin-4-yl}-(tetrahydropyran-4-yl)-amine] | 8.42
6 | CN(C(=O)c1ccc(C2CCN(c3nc4c(c(NC5CCOCC5)n3)[S+]([O-])CC4)CC2)cc1)C1CC1 (stereo not shown) [Example 1.32, N-cyclopropyl-N-methyl-4-{1-[5-oxo-4-(tetrahydropyran-4-ylamino)-6,7-dihydro-5H-5λ^4-thieno[3,2-d]pyrimidin-2-yl]-piperidin-4-yl}-benzamide] | 8.07
7 | [O-][S+]1CCc2nc(N3CCC(c4ccc(F)cc4F)CC3)nc(NC3(CO)CC3)c21 (stereo not shown) [Example 1.14, (1-{2-[4-(2,4-difluorophenyl)-piperidin-1-yl]-5-oxo-6,7-dihydro-5H-5λ^4-thieno[3,2-d]pyrimidin-4-ylamino}-cyclopropyl)-methanol] | 7.80
8 | Cn1nc(-c2ccco2)cc1C1CCN(c2nc3c(c(NC4CCOCC4)n2)[S+]([O-])CC3)CC1 (stereo not shown) [Example 1.29, {2-[4-(5-furan-2-yl-2-methyl-2H-pyrazol-3-yl)-piperidin-1-yl]-5-oxo-6,7-dihydro-5H-5λ^4-thieno[3,2-d]pyrimidin-4-yl}-(tetrahydropyran-4-yl)-amine] | 8.77
9 | CN(C(=O)c1ccc(OC2CCN(c3nc4c(c(NC5CCOCC5)n3)[S+]([O-])CC4)CC2)cc1)C1CC1 (stereo not shown) [Example 1.33, N-cyclopropyl-N-methyl-4-{1-[5-oxo-4-(tetrahydropyran-4-ylamino)-6,7-dihydro-5H-5λ^4-thieno[3,2-d]pyrimidin-2-yl]-piperidin-4-yloxy}-benzamide] | 8.12
10 | CCc1[nH]c2ccc(F)cc2c1C1CCN(c2nc3c(c(Nc4cccc(F)c4)n2)[S+]([O-])CC3)CC1 (stereo not shown) [Example 1.13, {2-[4-(2-ethyl-5-fluoro-1H-indol-3-yl)-piperidin-1-yl]-5-oxo-6,7-dihydro-5H-5λ^4-thieno[3,2-d]pyrimidin-4-yl}-(3-fluorophenyl)-amine] | < 5.00
11 | Cc1oc(C2CCN(c3nc4c(c(N[C@H]5CCC(=O)N(C)C5)n3)[S+]([O-])CC4)CC2)nc1-c1ccccc1 (stereo partly drawn) [Example 1.36, (S)-1-methyl-5-{2-[4-(5-methyl-4-phenyloxazol-2-yl)-piperidin-1-yl]-5-oxo-6,7-dihydro-5H-5λ^4-thieno[3,2-d]pyrimidin-4-ylamino}-piperidin-2-one] | 9.40
12 | [O-][S+]1CCc2nc(N3CCC(CO)(c4ccc(Cl)cc4)CC3)nc(NC3CCOCC3)c21 (stereo not shown) [Example 1.39, {4-(4-chlorophenyl)-1-[5-oxo-4-(tetrahydropyran-4-ylamino)-6,7-dihydro-5H-5λ^4-thieno[3,2-d]pyrimidin-2-yl]-piperidin-4-yl}-methanol] | 8.74
13 | CN1C(=O)Nc2ccccc2C12CCN(c1nc3c(c(NC4CCOCC4)n1)[S+]([O-])CC3)CC2 (stereo not shown) [Example 1.11, 3′-methyl-1-(4-(tetrahydro-2H-pyran-4-ylamino)-5-oxo-6,7-dihydro-5H-5λ^4-thieno[3,2-d]pyrimidin-2-yl)-1′H-spiro[piperidin-4,4′-quinazolin]-2′(3′H)-one] | < 5.00
14 | [O-][S+]1CCc2nc(N3CCC(O)(c4ccc(Cl)cc4)CC3)nc(NC3CCOCC3)c21 (stereo not shown) [Example 1.41, 4-(4-chlorophenyl)-1-[5-oxo-4-(tetrahydropyran-4-ylamino)-6,7-dihydro-5H-5λ^4-thieno[3,2-d]pyrimidin-2-yl]-piperidin-4-ol] | 8.17
15 | [O-][S+]1CCc2nc(N3CCC(c4noc5ccc(F)cc45)CC3)nc(NC3(CO)CC3)c21 (stereo not shown) [Example 1.18, (1-{2-[4-(5-fluorobenzo[d]isoxazol-3-yl)-piperidin-1-yl]-5-oxo-6,7-dihydro-5H-5λ^4-thieno[3,2-d]pyrimidin-4-ylamino}-cyclopropyl)-methanol] | 8.72
16 | Cn1c(C2CCN(c3nc4c(c(NC5CCOCC5)n3)[S+]([O-])CC4)CC2)nc2cnccc21 (stereo not shown) [Example 1.30, {2-[4-(1-methyl-1H-imidazo[4,5-c]pyridin-2-yl)-piperidin-1-yl]-5-oxo-6,7-dihydro-5H-5λ^4-thieno[3,2-d]pyrimidin-4-yl}-(tetrahydropyran-4-yl)-amine] | 7.48
17 | [O-][S+]1CCc2nc(N3CCC(c4ccc(Cl)cc4)CC3)nc(NC3(CO)CCC3)c21 (stereo not shown) [Example 1.47, (1-{2-[4-(4-Chloro-phenyl)-piperidin-1-yl]-5-oxo-6,7-dihydro-5H-5λ^4-thieno[3.2-d]pyrimidin-4-yl-amino}-cyclobutyl)-methanol] | 8.37
18 | CN1C[C@@H](Nc2nc(N3CCC(c4nc(-c5ccccc5)c(-c5ccccc5)o4)CC3)nc3c2[S+]([O-])CC3)CCC1=O (stereo partly drawn) [Example 1.38, (S)-5-{2-[4-(4,5-diphenyloxazol-2-yl)-piperidin-1-yl]-5-oxo-6,7-dihydro-5H-5λ^4-thieno[3,2-d]pyrimidin-4-ylamino}-1-methylpiperidin-2-one] | 9.70
19 | [O-][S+]1CCc2nc(N3CCC(c4ccc(F)cc4F)CC3)nc(NC3CCOCC3)c21 (stereo not shown) [Example 1.15, {2-[4-(2,4-difluorophenyl)-piperidin-1-yl]-5-oxo-6,7-dihydro-5H-5λ^4-thieno[3,2-d]pyrimidin-4-yl}-(tetrahydropyran-4-yl)-amine] | 7.81
20 | [O-][S+]1CCc2nc(N3CCC(c4nc(-c5ccncc5)no4)CC3)nc(Nc3cccc(F)c3)c21 (stereo not shown) [Example 1.20, (3-fluorophenyl)-{5-oxo-2-[4-(3-pyridin-4-yl-[1,2,4]oxadiazol-5-yl)-piperidin-1-yl]-6,7-dihydro-5H-5λ^4-thieno[3,2-d]pyrimidin-4-yl}-amine] | 8.57
21 | [O-][S+]1CCc2nc(N3CCC(c4noc5ccccc45)CC3)nc(NC3(CO)CC3)c21 (stereo not shown) [Example 1.8, {1-[2-(4-benzo[d]isoxazol-3-yl-piperidin-1-yl)-5-oxo-6,7-dihydro-5H-5λ^4-thieno[3,2-d]pyrimidin-4-ylamino]-cyclopropyl}-methanol] | 8.72
22 | Cn1nc(C2CCN(c3nc4c(c(NC5CCOCC5)n3)[S+]([O-])CC4)CC2)cc1-c1ccco1 (stereo not shown) [Example 1.27] | 7.68
23 | CC(C)[C@H](CO)Nc1nc(N2CCC(c3nc(-c4ccncc4)no3)CC2)nc2c1[S+]([O-])CC2 (stereo partly drawn) [Example 1.21, (R)-3-methyl-2-{5-oxo-2-[4-(3-pyridin-4-yl-[1,2,4]oxadiazol-5-yl)-piperidin-1-yl]-6,7-dihydro-5H-5λ^4-thieno[3,2-d]pyrimidin-4-ylamino}-butan-1-ol] | < 5.00
24 | [O-][S+]1CCc2nc(N3CCC(c4ccc(Cl)cc4)CC3)nc(NC3(CO)CC3)c21 (stereo not shown) [Example 1.2, (1-{2-[4-(4-chlorophenyl)-piperidin-1-yl]-5-oxo-6,7-dihydro-5H-5λ^4-thieno[3,2-d]pyrimidin-4-ylamino}-cyclopropyl)-methanol] | 8.47
25 | O=C(O)c1ccc(OC2CCN(c3nc4c(c(NC5CCOCC5)n3)[S+]([O-])CC4)CC2)cc1 (stereo not shown) [Example 1.24, 4-{1-[5-oxo-4-(tetrahydropyran-4-ylamino)-6,7-dihydro-5H-5λ^4-thieno[3,2-d]pyrimidin-2-yl]-piperidin-4-yloxy}-benzoic acid] | 8.15
